According to patent US12103946B2, “Steroid compounds as Treg modulators and uses thereof” (New York University, priority 2018, dated 2024):
Read-outs that look alike come from different tables or passages of the source.

Legend:
[1] = system: naïve CD4+ T cells (Th17 differentiation, IL-17a); experiment: In vitro Th17 differentiation, IL-17a staining by flow cytometry; type: cell-based, mouse; conditions: for Th17 cell differentiation (IL-17a): bile acids 20 μM, 3 days, IL-6 and TGF-β
Text: (§1) Our screen included both primary bile acids, synthesized by the host, and secondary bile acids, produced by bacterial modification of primary bile acids (FIG. 5). Naïve CD4^+ T cells were isolated from wild-type C57BL/6J (B6) mice and cultured with bile acids under Th17 differentiation conditions and, as a counter-screen, Treg differentiation conditions (FIG. 6).
(§2) In Vitro T Cell Culture. Naïve CD4^+ (CD62L^+ CD44^− CD25^− CD4^+) T cells were isolated from the spleens and the lymph nodes of mice of designated genotypes with FACS sorting. For certain experiments, naïve CD4^+ T cells were enriched using naïve CD4^+ T cell isolation kits (Miltenyi). Naïve CD4^+ T cells (40,000 cells) were cultured in a 96-well plate pre-coated with hamster IgG (MP Biomedicals) in T cell medium (RPMI, 10% fetal bovine serum, 25 mM glutamine, 55 μM 2-mercaptoethanol, 100 U/mL penicillin, […] streptomycin) supplemented with 0.25 μg/mL anti-CD3 (clone 145-2C11) and 1 μg/mL anti-CD28 (clone 37.51). For Th0 culture, T cells were cultured with the addition of 100 U/mL of IL-2 (PEPROTECH). For Th1 cell differentiation, T cells were cultured with the addition of 100 U/mL of IL-2, 10 μg/mL of anti-IL-4 (clone 11B11) and 10 ng/mL of IL-12 (PEPROTECH). For Th2 cell differentiation, T cells were cultured with the addition of 10 μg/mL of anti-IFNγ (clone XMG1.2) and 10 ng/mL of IL-4 (R&D Systems). For Th17 cell differentiation, T cells were cultured with the addition of 10 ng/mL of IL-6 (eBioscience) and 0.5 ng/mL of TGF-β (PEPROTECH). For Treg culture, T cells were cultured with the addition of 100 U/mL of IL-2 and various concentrations of TGF-β. […] Bile acids, retinoic acid (Sigma) or mitoQ (Focus Biomolecules), or mitoPQ (Sigma) were added either at 0 or 16 h time points. Compounds with low water solubility were sonicated before adding to the culture. Cells were harvested and assayed by flow cytometry on day 3. For ROS and mitochondrial membrane potential detection, cells cultured for 2 days were incubated with 5 μM of mitoSOX (ThermoFisher), 10 μM of DCFDA (Sigma) or 2 μM of JC-1 (ThermoFisher) for 30 min and assayed with flow cytometry.
(§3) Flow Cytometry. Cells harvested from in vitro culture or in vivo mice experiments were stimulated with 50 ng/mL PMA (Phorbol 12-myristate 13-acetate, Sigma) and 1 μM ionomycin (Sigma) in the presence of GolgiPlug (BD) for 4 h to determine cytokine expression. After stimulation, cells were stained with cell surface marker antibodies and LIVE/DEAD Fixable dye, Aqua, to exclude dead cells, fixed and permeabilized with a FoxP3/Transcription factor staining kit (eBioscience), followed by staining with cytokine- and/or transcription factor-specific antibodies. All flow cytometry analyses were performed on an LSR II flow cytometer (BD) and data were analyzed with FlowJo software (TreeStar).

[2] = biological target: T1, recombinant human RORγt ligand-binding domain (LBD) (Homo sapiens, UniProt P51449); experiment: Microscale thermophoresis assay; conditions: MST
T1 sequence (P51449 269-508 limits assumed): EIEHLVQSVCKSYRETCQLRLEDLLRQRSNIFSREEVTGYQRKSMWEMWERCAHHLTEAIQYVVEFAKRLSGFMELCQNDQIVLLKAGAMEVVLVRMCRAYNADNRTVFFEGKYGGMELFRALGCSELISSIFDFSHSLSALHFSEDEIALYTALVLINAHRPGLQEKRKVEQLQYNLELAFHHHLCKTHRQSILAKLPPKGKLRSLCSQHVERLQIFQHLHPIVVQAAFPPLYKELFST
Experimental: (§4) We next examined if 3-oxoLCA physically interacts with the RORγt protein in vitro. A microscale thermophoresis (MST) assay was performed with recombinant human RORγt ligand-binding domain (LBD). […] Next, we examined if 3-oxoLCA modulates the transcriptional activity of RORγt. We assayed the effect of the bile acids on firefly luciferase expression directed by a fusion protein of RORγt and Gal4-DBD (DNA-binding domain) in human embryonic kidney (HEK) 293 cells^14.
Microscale Thermophoresis Assay. The binding affinity of the compounds with RORγ ligand-binding domain (LBD) was analyzed by microscale thermophoresis (MST). Purified RORγ-LBD was labeled with the Monolith NT™ Protein Labeling Kit RED (NanoTemper Technologies). Serially-diluted compounds, with concentrations of 1 mM to 20 nM, were mixed with 55 nM labeled RORγ-LBD at room temperature and loaded into Monolith™ standard-treated capillaries. Binding was measured by monitoring the thermophoresis with 20% LED power and ‘Medium’ MST power on a Monolith NT.115 instrument (Nano Temper Technologies) with the following time setting: 5s Fluo, Before; 20s MST On; and 5s Fluo, After. Kd values were fitted using the NT Analysis software (Nano Temper Technologies).

[3] = cited from earlier work
[4] = Measurement of lipophilicity (octanol/ammonium bicarbonate partitioning, LC-MS); conditions: n-octanol / 50 mM ammonium bicarbonate, pH 8
Experimental: (§5) Measurement of lipophilicity. Partitioning Method: 2 μL of 10 mM stock solutions of each target compound was added to a 1 mL each of 50 mM ammonium bicarbonate (pH=8), and 1 mL of n-octanol in an Eppendorf tube. The resulting two-phase mixture was vortexed and then shaken for 18 h at 20° C. The two phases were then carefully separated into the aqueous sample (bottom layer), and organic sample (top-layer) and placed separately in autosampler vials and analyzed by LC-MS/MS. LC-MS Method: a Thermo q-Exactive Plus LC-MS equipped with an Ultimate 3000 HPLC was operated in negative ion mode after optimized to detect the [M− H]^− of the bile acids. […] A Dikma Inspire C8 column (3 μm particle size, 100 mm length, 4.6 mm ID) was used for analysis. Each injection was 5 μL, and a constant flow rate of 0.400 L/min was used. The gradient started at 0% B and was held constant for 2 minutes. Then the mobile phase composition was linearly changed to 100% B over 8 minutes and held at 100% for the following 5 minutes. The mobile phase composition was changed to 0% B over the following 0.1 minutes and the system was allowed to equilibrate to starting conditions over 1.9 minutes. Standards of all targets were used to establish retention times. Better than 2 ppm mass accuracy was obtained on all measurements. The LC-MS analysis was done in triplicate, while the partitioning was done once for each target's [M− H]^− ion. Calculation of log D: the total response of target in octanol was divided by the total response in the aqueous phase to get a partitioning coefficient. Then, log base 10 was taken and reported.

CD4+ T cells = conditions: for cell viability: 3-day culture
Text: Representative FACS plots of CD4^+ T cells cultured for 3 days and stained intracellularly for FoxP3 (e). Quantification of FoxP3^+ and viable T cells after 3-day culture (f) (n=2/group). n, number of biologically independent samples. Data are representative of two independent experiments (b, d). Data in (c) are shown as the mean±standard deviation.
Naïve CD4^+ T cells were isolated from FoxP3-IRES-GFP mice. d, Flow cytometry of CD4^+ T cells stained intracellularly for FoxP3. Naïve CD4^+ T cells isolated from WT, CNS1, CNS2 or CNS3 knockout mice (n=3/group) were cultured with anti-CD3/28 and IL-2, LCA (20 μM), TGF-β (0.05 ng/ml) and additional retinoic acid (RA; 1 ng/ml). e and f, Flow cytometry (e) and its quantification (f) of CD4^+ T cells stained intracellularly for FoxP3. […] Data are representative of two independent experiments (c, d). Data are shown as the mean±standard deviation by unpaired t-test with 2-tailed p-value.
as §3

physchem = conditions: pH 8
Experimental: as §5

[5] = system: fusion protein of RORγt and Gal4-DBD; experiment: RORγt luciferase reporter assay in HEK293 cells; type: cell-based, human; conditions: ML209 2 μM, bile acids 10 μM
Experimental: Data are shown as the mean±standard deviation by unpaired t-test with 2-tailed p-value.
as §4

[6] = system: naïve CD4+ T cells (Treg differentiation, FoxP3); experiment: In vitro Treg differentiation, FoxP3 staining by flow cytometry; type: cell-based, mouse; conditions: for FoxP3 expression / Treg differentiation in cells lacking CNS3: CNS3 knockout cells
Text: To determine if bile acids influence T cell functions, the present inventors performed a small-scale screening assay with a small molecule library comprising secondary bile acids with in vitro Treg differentiation as a read-out. Naïve CD4^+ T lymphocytes were sorted from wild-type B6 mice and cultured in the presence of a TCR stimulus, interleukin 2 (IL-2), and different amounts of TGFβ (optimized for Treg differentiation). Treg differentiation was quantified at the single cell level by staining with an antibody specific for FoxP3, followed by flow cytometry analysis. Retinoic acid, a known enhancer of Treg differentiation, was used as a positive control.
as §1, §2, §3

T cells = experiment: ROS, mitochondrial mass and membrane potential (mitoSOX, DCFDA, MitoTracker, JC-1); type: cell-based, mouse; conditions: 48 h
Experimental: Chromatin obtained from DMSO- and isoalloLCA-treated WT cells was immunoprecipitated with IgG, anti-H3K27Ac, anti-P300, or anti-H3K4me1 antibodies, followed by real-time PCR analysis (n=3/group). Primers targeting FoxP3 promoter (Pro), CNS1, CNS2 and CNS3 region and hsp90 promoter were used for qPCR quantification. Relative enrichment was calculated as fold change relative to the ChIP signal at the FoxP3 promoter of the DMSO-treated control. d and e, Flow cytometry and quantification of CD4^+ T cells stained intracellularly for FoxP3. […] Their mitochondrial and cytoplasmic ROS were measured by mitoSOX (h) and 2′,7′-dichlorofluorescein diacetate (DCFDA) (i), respectively. Total mitochondria mass was measured by MitoTracker (j) and the mitochondrial membrane potential measured by JC-1 dye (k). MFIs of different treatments were normalized as fold changes to those of DMSO control (n=3/group).
In Vitro T Cell Culture. Naïve CD4^+ (CD62L^+ CD44^− CD25^− CD4^+) T cells were isolated from the spleens and the lymph nodes of mice of designated genotypes with FACS sorting. For certain experiments, naïve CD4^+ T cells were enriched using naïve CD4^+ T cell isolation kits (Miltenyi). […]

In the case of C[C@H](CCC(=O)O)[C@H]1CC[C@H]2[C@@H]3[C@H](O)C[C@@H]4CC(=O)CC[C@]4(C)[C@H]3C[C@H](O)[C@]12C [3-oxoCA, 3-oxocholic acid, reference compound], the “Th17 cell differentiation (IL-17a)” value [1] is reported as “Neither 3-oxoCA nor 3-oxoDCA inhibited Th17 cell differentiation as robustly as 3-oxoLCA” and the “Kd relative to 3-oxoLCA” value [2] is reported as about 20 times.
In the case of C[C@H](CCC(=O)O)[C@H]1CC[C@H]2[C@@H]3CC[C@@H]4CC(=O)CC[C@]4(C)[C@H]3C[C@H](O)[C@]12C [3-oxoDCA, 3-oxodeoxycholic acid, reference compound], the “Th17 cell differentiation (IL-17a)” value [1] is reported as “Neither 3-oxoCA nor 3-oxoDCA inhibited Th17 cell differentiation as robustly as 3-oxoLCA” and the “Kd relative to 3-oxoLCA” value [2] is reported as about 20 times.
In the case of C[C@H](CCC(=O)O)[C@H]1CC[C@H]2[C@@H]3[C@H](O)C[C@@H]4C[C@H](O)CC[C@]4(C)[C@H]3CC[C@]12C [CDCA, Chenodeoxycholic acid], the “Log D (pH = 8.0), previously reported” value [3] is listed as 2.2.
Compound C[C@H](CCC(=O)O)[C@H]1CC[C@H]2[C@@H]3CC[C@@H]4C[C@H](O)CC[C@]4(C)[C@H]3C[C@H](O)[C@]12C [DCA, Deoxycholic acid] has a logD at 18 h [4] of 2.7.
For C[C@H](CCC(=O)NCC(=O)O)[C@H]1CC[C@H]2[C@@H]3CC[C@H]4C[C@@H](O)CC[C@]4(C)[C@H]3CC[C@]12C [Glyco-isoalloLCA], the “cytotoxicity compared to isoalloLCA” value (CD4+ T cells; 10 or 20 μM) was “enhanced cytotoxicity at 10 or 20 μM compared to isoalloLCA”.
C[C@H](CCC(=O)O)[C@H]1CC[C@H]2[C@@H]3CC[C@@H]4C[C@H](O)CC[C@]4(C)[C@H]3CC[C@]12C [LCA, Lithocholic acid] gave a logD at 18 h (physchem) of 3.6.
In the case of COc1cc(O)c(C(CC(=O)N2C[C@H](C)C[C@H](C)C2)c2ccc3c(c2)OCO3)c(OC)c1 (stereo partly shown) [ML209, reference compound], the RORγt reporter activity [5] is reported as “completely lost RORγt activity”.
Compound CC[C@H]1[C@@H](O)[C@@H]2[C@H](CC[C@]3(C)[C@@H]([C@H](C)CCC(=O)O)CC[C@@H]23)[C@@]2(C)CC[C@@H](O)C[C@@H]12 [OCA, Obeticholic acid] has a logD at 18 h [4] of 2.5.
In the case of C[C@H](CCC(=O)O)[C@H]1CC[C@H]2[C@@H]3[C@@H](O)C[C@@H]4C[C@H](O)CC[C@]4(C)[C@H]3CC[C@]12C [UDCA, Ursodeoxycholic acid], the “Log D (pH = 8.0), previously reported” value [3] is given as 2.2.
In the case of C[C@H](CCC(=O)O)[C@H]1CC[C@H]2[C@@H]3CC[C@H]4C[C@H](O)CC[C@]4(C)[C@H]3CC[C@]12C [alloLCA, Allolithocholic acid], the “Log D (pH = 8.0)” value is reported as 3.5.
With CCNC(=O)C[C@@H]1N=C(c2ccc(Cl)cc2)c2cc(OC)ccc2-n2c(C)nnc21 [iBET, reference compound] the “effect on isoalloLCA-dependent enhancement of FoxP3” value ([6]; isoalloLCA 20 μM, TGF-β 0.05 ng/mL) was “prevented isoalloLCA-dependent enhancement of FoxP3 in a dose-dependent manner”.
For C[C@H](CCC(=O)O)[C@H]1CC[C@H]2[C@@H]3CC[C@@H]4C[C@@H](O)CC[C@]4(C)[C@H]3CC[C@]12C [isoLCA, Isolithocholic acid], the logD at 18 h (physchem) was 3.5.
For C[C@H](CCC(=O)O)[C@H]1CC[C@H]2[C@@H]3CC[C@H]4C[C@@H](O)CC[C@]4(C)[C@H]3CC[C@]12C [isoalloLCA, Isoallolithocholic acid], the “reduction of Th17 cell differentiation” value ([1]; 20 μM) was about 50%, the logD at 18 h (physchem) was 2.2 and the cell viability (CD4+ T cells) was “do not significantly affect cell proliferation, cell viability”. For the same compound, the cell viability (CD4+ T cells; listed as IsoalloLCA) was “did not impair cell viability”.
With C[n+]1ccc(-c2cc[n+](CCCCCCCCCC[P+](c3ccccc3)(c3ccccc3)c3ccccc3)cc2)cc1.[I-].[I-].[I-] [mitoPQ, mitoParaquat, reference compound] the “mitochondrial ROS (mitoROS) production” value (T cells) was “sufficient to enhance mitoROS production”, the “FoxP3 expression / Treg differentiation in cells lacking CNS3” value [6] was “required the CNS3 enhancer and TGF-β” and the “Treg differentiation (FoxP3 expression)” value ([6]; bile acids 20 μM, 3 days, anti-CD3/28, IL-2) was “sufficient to enhance mitoROS production and Treg differentiation in a dose-dependent manner”.
With TGF-β: cytokine used for Treg culture the “FoxP3 expression / Treg differentiation in cells lacking CNS3” value [6] was “boosted Treg differentiation in CNS3-deficient cells, albeit with reduced efficiency”.
